Reference: ChEMBL document CHEMBL3045408, “Receptor and ligand-based 3D-QSAR study on a series of nonsteroidal anti-inflammatory drugs” (Med Chem Res, 2013)

Legend:
[1] = biological target: T1, Prostaglandin G/H synthase 2 (Homo sapiens, UniProt P35354); test: Inhibition of COX2 (unknown origin)
T1 sequence (P35354 whole entry): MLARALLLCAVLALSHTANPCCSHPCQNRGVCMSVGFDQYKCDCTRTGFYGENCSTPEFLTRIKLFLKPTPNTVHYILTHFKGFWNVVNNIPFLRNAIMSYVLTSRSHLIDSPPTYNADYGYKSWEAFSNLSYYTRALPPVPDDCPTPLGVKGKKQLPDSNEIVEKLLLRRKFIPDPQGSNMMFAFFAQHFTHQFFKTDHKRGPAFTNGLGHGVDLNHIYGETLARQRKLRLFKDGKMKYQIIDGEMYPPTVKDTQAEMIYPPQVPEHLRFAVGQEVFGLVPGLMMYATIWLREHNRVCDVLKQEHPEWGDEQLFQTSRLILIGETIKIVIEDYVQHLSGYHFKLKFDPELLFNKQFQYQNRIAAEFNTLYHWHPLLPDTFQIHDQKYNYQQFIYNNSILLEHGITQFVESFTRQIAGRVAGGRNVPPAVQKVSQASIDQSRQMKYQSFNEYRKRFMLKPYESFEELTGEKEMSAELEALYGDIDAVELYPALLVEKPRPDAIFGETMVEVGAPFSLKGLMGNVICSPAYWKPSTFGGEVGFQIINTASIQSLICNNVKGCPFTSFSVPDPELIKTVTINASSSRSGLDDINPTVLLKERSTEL

[2] = biological target: T2, Prostaglandin G/H synthase 2 (Homo sapiens) (UniProt P35354); test: Ratio of compound IC50 to celecoxib IC50 for Inhibition of COX2 (unknown origin)
T2 sequence (whole entry): T1 sequence (P35354 whole entry)

IC50 [1]	-log(RatioIC50) [2]	Compound
2000 nM		CS(=O)(=O)c1ccc(C=C(c2ccc(Cl)cc2)c2ccc(Cl)cc2)cc1
	0.609	CCCCC(=C(c1ccccc1)c1ccccc1)c1ccc(S(C)(=O)=O)cc1
360 nM	-0.711	CCCCC(=C(c1ccccc1)c1cc(C(C)(C)C)c(O)c(C(C)(C)C)c1)c1ccc(S(C)(=O)=O)cc1
> 100000 nM	-3.15	CS(=O)(=O)Nc1ccc(/C(=C(\c2ccccc2)C2CCCCC2)c2ccccc2)cc1
320 nM	-0.66	CCCC/C(=C(\c1ccccc1)c1ccc(NS(C)(=O)=O)cc1)c1ccccc1
1800 nM	-1.41	CC/C(=C(\c1ccccc1)c1ccc(NS(C)(=O)=O)cc1)c1ccccc1
> 100000 nM	-3.2	CCCCC(=C(c1ccccc1)c1cc(C(C)(C)C)c(C(C)=O)c(C(C)(C)C)c1)c1ccc(S(C)(=O)=O)cc1
> 100000 nM	-3.2	CC(C)Oc1ccc(-c2cccc(/C(=C\c3ccc(S(C)(=O)=O)cc3)C(=O)O)c2)cc1
1250 nM	-1.34	CCC(=C(c1ccccc1)c1ccccc1)c1ccc(S(C)(=O)=O)cc1
> 100000 nM	-3.2	CS(=O)(=O)c1ccc(/C=C(/C(=O)O)c2cccc(-c3ccc(F)cc3F)c2)cc1
